What was measured:
RAW264.7 = assay: Antioxidant activity in LPS induced mouse RAW264.7 cells assessed as superoxide anion scavenging activity at 10 uM after 24 hrs by HE probe based HPLC-MS analysis relative to control; assay type: functional
[1] = biological target: Xanthine dehydrogenase/oxidase (Homo sapiens, UniProt P47989); assay: Inhibition of Xanthine oxidase (unknown origin) using xanthine as substrate preincubated for 3 mins followed by substrate addition measured every 15 secs for 7 mins by spectrophotometry
Xanthine dehydrogenase/oxidase, sequence (P47989 whole entry): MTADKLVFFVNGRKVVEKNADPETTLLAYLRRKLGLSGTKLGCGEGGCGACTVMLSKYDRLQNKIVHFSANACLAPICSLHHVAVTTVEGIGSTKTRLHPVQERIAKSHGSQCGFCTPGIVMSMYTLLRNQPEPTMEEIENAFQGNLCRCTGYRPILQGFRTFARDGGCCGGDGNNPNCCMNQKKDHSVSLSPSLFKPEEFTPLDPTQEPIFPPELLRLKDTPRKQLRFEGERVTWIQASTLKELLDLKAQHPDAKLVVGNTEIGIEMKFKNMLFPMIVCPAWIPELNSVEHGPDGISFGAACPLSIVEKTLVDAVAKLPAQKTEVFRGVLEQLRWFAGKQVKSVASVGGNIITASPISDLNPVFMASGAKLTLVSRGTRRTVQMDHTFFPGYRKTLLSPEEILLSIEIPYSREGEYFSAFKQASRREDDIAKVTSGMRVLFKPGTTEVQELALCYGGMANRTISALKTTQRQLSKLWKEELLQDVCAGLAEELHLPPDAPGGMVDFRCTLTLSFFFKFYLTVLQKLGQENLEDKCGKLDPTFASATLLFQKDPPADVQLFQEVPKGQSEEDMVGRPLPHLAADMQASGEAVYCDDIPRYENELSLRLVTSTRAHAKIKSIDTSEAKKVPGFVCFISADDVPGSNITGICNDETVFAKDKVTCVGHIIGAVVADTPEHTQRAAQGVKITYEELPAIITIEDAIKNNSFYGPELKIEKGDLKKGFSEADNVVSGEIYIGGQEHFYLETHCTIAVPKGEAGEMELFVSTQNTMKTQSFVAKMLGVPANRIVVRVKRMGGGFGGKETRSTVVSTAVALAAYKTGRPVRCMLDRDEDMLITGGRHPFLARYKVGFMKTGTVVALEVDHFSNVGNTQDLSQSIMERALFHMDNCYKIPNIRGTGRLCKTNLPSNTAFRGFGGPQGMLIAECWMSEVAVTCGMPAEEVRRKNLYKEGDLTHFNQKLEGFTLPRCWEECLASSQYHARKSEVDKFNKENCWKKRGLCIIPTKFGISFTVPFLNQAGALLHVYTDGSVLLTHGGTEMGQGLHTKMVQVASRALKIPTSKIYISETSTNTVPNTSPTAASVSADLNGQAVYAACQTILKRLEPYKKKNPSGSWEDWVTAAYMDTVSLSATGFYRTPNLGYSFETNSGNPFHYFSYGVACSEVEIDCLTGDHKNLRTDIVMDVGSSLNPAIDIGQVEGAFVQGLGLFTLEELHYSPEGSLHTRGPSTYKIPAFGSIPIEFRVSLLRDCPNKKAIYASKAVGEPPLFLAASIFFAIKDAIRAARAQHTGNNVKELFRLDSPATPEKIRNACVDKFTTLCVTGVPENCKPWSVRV

[2] = Antioxidant activity assessed as DPPH radical scavenging activity incubated for 30 mins under dark conditions by spectrophotometry; assay type: functional

| Compound | Activity (RAW264.7) [%] | IC50 [1] [µM] | IC50 [2] [µM] |
| --- | --- | --- | --- |
| COC(=O)[C@@H](Cc1ccc(O)c(O)c1)NC(=O)/C=C/c1ccc(O)c2oc(-c3ccc(O)c(O)c3)cc12 | 74.16 | – | – |
| COC(=O)[C@H](Cc1ccccc1)NC(=O)/C=C/c1ccc(OC)c2oc(-c3ccc(OC)c(OC)c3)cc12 | – | > 60 | > 100 |
| COC(=O)[C@H](C)NC(=O)/C=C/c1ccc(O)c2oc(-c3ccc(O)c(O)c3)cc12 | 60.54 | – | – |
| COC(=O)[C@H](C)NC(=O)/C=C/c1ccc(OC)c2oc(-c3ccc(OC)c(OC)c3)cc12 | – | > 60 | > 100 |
| COC(=O)[C@H](Cc1ccc(O)c(O)c1)NC(=O)/C=C/c1ccc(O)c2oc(-c3ccc(O)c(O)c3)cc12 | 78.59 | – | – |
| VITAMIN E | 53.2 | – | – |
| O=C(/C=C/c1ccc(O)c2oc(-c3ccc(O)c(O)c3)cc12)N[C@H](Cc1ccc(O)c(O)c1)C(=O)O | 80.81 | – | – |
| O=C(/C=C/c1ccc(O)c2oc(-c3ccc(O)c(O)c3)cc12)N[C@@H](Cc1ccccc1)C(=O)O | 81.27 | – | – |
| C[C@H](NC(=O)/C=C/c1ccc(O)c2oc(-c3ccc(O)c(O)c3)cc12)C(=O)O | 41.65 | – | – |
| O=C(/C=C/c1ccc(O)c2oc(-c3ccc(O)c(O)c3)cc12)N[C@@H](Cc1ccc(O)cc1)C(=O)O | 83.41 | – | – |
| O=C(/C=C/c1ccc(O)c2oc(-c3ccc(O)c(O)c3)cc12)O[C@H](Cc1ccc(O)c(O)c1)C(=O)O | 37.82 | 8.26 | 6.87 |
| COC(=O)[C@@H](Cc1c[nH]c2ccccc12)NC(=O)/C=C/c1ccc(OC)c2oc(-c3ccc(OC)c(OC)c3)cc12 | – | > 60 | > 100 |

From ChEMBL document CHEMBL4000156 (Eur J Med Chem, 2016)
